Source: US20250221963A1 (GH RESEARCH IRELAND LIMITED, priority 2022, published 2025)

Legend:
human plasma protein = experiment: Plasma binding of 5-MIAA; type: in vitro ADME
Protocol: Binding to human plasma protein was determined. Reported are the unbound fraction (fu) for three replicates as well as the mean unbound fraction, the standard deviation and the mean % recovery (Table 8).

human hepatocytes [1] = experiment: In vitro metabolism identification study in human hepatocytes; conditions: for Relative Proportion of compounds identified: 5-MeO-DMT free base incubated up to 120 minutes at 10 μM; for Presence in subsequent assays: metabolites of 5-MeO-DMT
Protocol: For incubations with cryopreserved hepatocytes, the 2 mM stock solution was diluted with Leibovitz L-15 medium to a concentration of 20 μM or 2 μM. An aliquot (250 μL) of the 20 μM and 2 μM test substance formulations was added to each hepatocyte incubation sample (250 μL), as appropriate, so that the final test substance concentration in the incubations was 10 μM or 1 μM, respectively, and incubations contained less than 1% (v/v) solvent.
Incubations were performed at ca. 37° C. in a shaking water bath (total incubation volume 0.5 mL). For 1 μM, incubations were terminated after 0, 5, 10, 20, 30, 60 and 120 minutes, by the addition of ice-cold acetonitrile (0.5 mL).
The samples were vortex mixed and centrifuged at ca 13,000 rpm for 10 minutes at room temperature. Following centrifugation, the protein-free supernatants were removed for analysis.
Blank control incubations were carried out with Leibovitz L-15 medium in place of the test substance. No cells control samples were performed with Leibovitz L-15 medium in place of hepatocytes. Aliquots of the blank control samples were taken at 120 minutes, while no cells control samples were taken at 0, 30 and 120 for 1 μM incubations and at 0 and 120 minutes for 10 μM incubations.
All 1 μM incubations were performed in duplicate, while all 10 μM incubations were performed in singlet. All samples were stored at −80° C. (nominal) prior to analysis.
Prior to sample analysis a 100 μL aliquot of each sample was evaporated to near dryness under a steady stream of nitrogen at room temperature, and subsequently reconstituted in 50 μL of mobile phase A (0.1% formic acid in water). Each sample (0, 30 and 120-minute, 10 μM) was analysed using accurate mass LC-MS to determine relative levels of parent compound at each time-point, and determine the profile of metabolites formed. Appropriate blank and control samples were also analysed. The 10 and 60-minute, 10 μM incubation samples were not analysed and were stored at −80° C. (nominal).
Data were interrogated for the presence of metabolites by comparison of retention times with the test substance reference standard and based on the accurate masses of potential metabolites using screening software (UNIFI version 1.9.4), and user defined search parameters. To confirm a suspected metabolite, the measured accurate mass of the peak detected in the sample used for structural elucidation had to be within 5 ppm of the theoretical mass in order to confirm the molecular formula.

[2] = Pharmacokinetics of 5-MeO-DMT and bufotenine after inhalation; type: in vivo, human
Protocol: Blood samples were obtained at 1; 2; 4; 7; 10; 15; 20; 30; 45 min and 1; 1.5; 2; 3; 4 hours after administration.
PK parameters were generated by algebraic analysis of the concentration versus time plots for each individual. The analysis was carried out using the software Phoenix WinNonlin 6.3.

human hepatocytes [3] = experiment: Metabolic stability in Hμrel co-culture assay with human hepatocytes; conditions: for Disappearance with stromal cell controls: stromal cells

| Compound | Unbound fraction (fu) (human plasma protein; Replicate 1) | Unbound fraction (fu) (human plasma protein; Replicate 2) | Unbound fraction (fu) (human plasma protein; Replicate 3) | Relative Proportion of compounds identified (human hepatocytes [1]) [%] | Presence in subsequent assays (human hepatocytes [1]) | Disappearance with stromal cell controls (human hepatocytes [3]) | further results |
| --- | --- | --- | --- | --- | --- | --- | --- |
| CC(=O)CC(c1ccccc1)c1c(O)c2ccccc2oc1=O (stereo not shown) [Warfarin, reference compound] | 0.0418 | 0.0356 | 0.0358 |  |  |  |  |
| CN(C)CCc1c[nH]c2ccc(O)cc12 [bufotenine] |  |  |  | 5 |  |  | Detection in human serum ([2]; after administration of 5-MeO-DMT): barely detected; Bufotenine blood concentration ([2]; from 15 min onwards after 5-MeO-DMT, LLOQ): < 25 pg/mL |
| COc1ccc2[nH]cc(CC[N+](C)(C)[O-])c2c1 [5-MeO-DMT-N-oxide] |  |  |  | 1 |  |  |  |
| COc1ccc2[nH]cc(CC(=O)O)c2c1 [5-MIAA, 5-methoxyindole-3-acetic acid] | 0.499 | 0.462 | 0.544 | 61 | predominant metabolite | no disappearance | Plasma binding (mean fraction unbound) (human plasma protein): ~50%; Time until all traces are removed from circulation for urinary excretion (human plasma protein; assuming glomerular filtration rate of 90-120 ml/min): 1 to 2 h; Mean fu (human plasma protein; three replicates): 0.502; Half-life (human hepatocytes [3]; human hepatocytes, 1 μM): 15 400 min; In vitro intrinsic clearance (human hepatocytes [3]; human hepatocytes, 1 μM): 0.15 μl/min/million cells |
| COc1ccc2[nH]cc(CCO)c2c1 [5-methoxytryptophol, 5-Methoxyindole-3-ethanol] |  |  |  | 25 | repeatedly failed to detect the presence | no disappearance | Time to complete disappearance (human hepatocytes [3]; in the presence of hepatocytes): 24 h |
